According to patent US20220273619A1, “PHARMACEUTICAL FORMULATIONS COMPRISING SODIUM PALMITOYL-L-PROLYL-L-PROLYLGLYCYL-L-TYROSINATE AND METHODS FOR PREPARING THE SAME” (Bridge Blctherapeutics, lnc., priority 2019, published 2022):
Values after ≈ are worked out from the molar mass of the structure shown. Structures can show the parent of a compound that is named as a salt. Where a SMILES comes first, the peptide text is derived from it. The star is where a group is joined. Palmitoyl = CCCCCCCCCCCCCCCC(=O)*

What was measured:
[1] = Solid-form observation of the disodium salt (hygroscopicity); format: physicochemical; conditions: could not be maintained in the form of the solid powder
Method: In the method for preparing Compound I, an excess of NaOH (for example; 4 equivalents) was added to prepare disodium palmitoyl-L-prolyl-L-prolyl-glycyl-L-tyrosinate.

[2] = Stability test: impurities by HPLC after storage; format: physicochemical
Method: After the dosage forms prepared in the present invention were stored for a period of time in a long-term storage stability condition (25° C./60% RH) or an accelerated stability condition (40° C./75% RH), the content of individual impurities or total impurities was measured. The impurities were measured using a validated HPLC analysis method. The specific conditions are as follows.

[3] = Solubility at room temperature, manual dilution combined with visual observation; format: physicochemical; conditions: for solubility: room temperature
Method: The solubility was tested in various solvents for palmitoyl-L-prolyl-L-prolyl-glycyl-L-tyrosine (Compound II). The solubility test was performed by manual dilution combined with visual observation.
The solubility was tested at room temperature in various solvents for Compound I. In addition, the solubility test was performed by manual dilution combined with visual observation. Specifically, 2 mg of Compound I was added to a 1.5 mL HPLC vial and continuously stirred at ambient temperature while the solvent was gradually added.

[4] = Solubility by shaking at 25° C., filtration and HPLC of the filtrate; format: physicochemical
Method: The solubility was measured by the following method. An appropriate amount of sample was placed in a 1.5 mL HPLC vial, and then 1.0 mL of solvent was added. The HPLC vial was shaken at 25° C. at a speed of 700 rpm, then the slurry was filtered, and the filtrate was analyzed by HPLC. In this case, the limit of quantification (LOQ) was 2 μg/mL.
In order to increase the solubility of palmitoyl-L-prolyl-L-prolyl-glycyl-L-tyrosine (Compound II) in water, the amorphous solid dispersions of Compound II were prepared, and then the solubility was measured.
In order to increase the solubility of palmitoyl-L-prolyl-L-prolyl-glycyl-L-tyrosine (Compound II) in water, a surfactant such as sodium lauryl sulfate (SLS) was added, and the solubility was measured.

[5] = Solubility in water of other salts of Compound II; format: physicochemical
interleukin-6 = conditions: cited from earlier work
NF-κB = conditions: cited from earlier work
[6] = 1,4-dioxane, 1,4-dioxane, read-out: Solubility
[7] = 1-butanol, read-out: Solubility
[8] = 2-methyl tetrahydrofuran, read-out: Solubility
[9] = ACN-H2O (1:1), read-out: Solubility
[10] = N-methyl pyrrolidone, read-out: Solubility
[11] = THF-H2O (1:1), read-out: Solubility
[12] = acetone-H2O (1:2), read-out: Solubility
[13] = acetonitrile, read-out: Solubility
[14] = cyclohexane, read-out: Solubility
[15] = ethanol-H2O (1:1), read-out: Solubility
[16] = ethanol-H2O (3:1), read-out: Solubility
[17] = ethyl acetate, read-out: Solubility
[18] = isopropyl acetate, read-out: Solubility
[19] = isopropyl alcohol, read-out: Solubility
[20] = methanol-H2O (1:1), read-out: Solubility
[21] = methanol-H2O (3:1), read-out: Solubility
[22] = methyl ethyl ketone, read-out: Solubility
[23] = methyl isobutyl ketone, read-out: Solubility
[24] = methyl t-butyl ether, read-out: Solubility
[25] = tetrahydrofuran, read-out: Solubility
[26] = SGF (pH = 1.2), 25° C., LOQ = 2 μg/mL

## CCCCCCCCCCCCCCCC(=O)N1CCC[C@H]1C(=O)N1CCC[C@H]1C(=O)NCC(=O)N[C@@H](Cc1ccc([O-])cc1)C(=O)[O-].[Na+].[Na+] [Disodium Palmitoyl-L-prolyl-L-prolyl-glycyl-L-tyrosinate] (Palmitoyl-PPGY-OH)
[1]
  Hygroscopicity: very hygroscopic

## CCCCCCCCCCCCCCCC(=O)N1CCC[C@H]1C(=O)N1CCC[C@H]1C(=O)NCC(=O)N[C@@H](Cc1ccc(O)cc1)C(=O)[O-].[Na+] [Compound I, sodium palmitoyl-L-prolyl-L-prolyl-glycyl-L-tyrosinate] (Palmitoyl-PPGY-OH)
[2]; in capsules of Table 26, 1 month, accelerated stability condition 40° C./75% RH
  Stability of Compound I: stable
[2]; in capsules of Table 31, 1 month, accelerated stability condition 40° C./75% RH
  Stability of Compound I: stable
[2]; in capsules of Table 36, 6 months, long-term storage stability condition 25° C./60% RH
  Stability of Compound I: stable
[2]; in capsules of Table 37, 6 months, accelerated stability condition 40° C./75% RH
  Stability of Compound I: stable
[3]; [6]
  solubility: 33300 to 50000 µg/mL
[3]; [7]
  solubility: 50000 to 100000 µg/mL
[3]; [8]
  solubility: > 100000 µg/mL
[3]; [9]
  solubility: 50000 to 100000 µg/mL
[3]; DMF, read-out: Solubility
  solubility: 20000 to 33300 µg/mL
[3]; DMSO, read-out: Solubility
  solubility: 50000 to 100000 µg/mL
[3]; [10]
  solubility: 50000 to 100000 µg/mL
[3]; [11]
  solubility: 50000 to 100000 µg/mL
[3]; [12]
  solubility: 50000 to 100000 µg/mL
[3]; acetone, read-out: Solubility
  solubility: < 1000 µg/mL
[3]; [13]
  solubility: < 1000 µg/mL
[3]; [14]
  solubility: < 1000 µg/mL
[3]; [15]
  solubility: 50000 to 100000 µg/mL
[3]; [16]
  solubility: 50000 to 100000 µg/mL
[3]; ethanol, read-out: Solubility
  solubility: 50000 to 100000 µg/mL
[3]; [17]
  solubility: < 1000 µg/mL
[3]; heptane, read-out: Solubility
  solubility: < 1000 µg/mL
[3]; [18]
  solubility: < 1000 µg/mL
[3]; [19]
  solubility: 50000 to 100000 µg/mL
[3]; [20]
  solubility: > 100000 µg/mL
[3]; [21]
  solubility: > 100000 µg/mL
[3]; methanol, read-out: Solubility
  solubility: > 100000 µg/mL
[3]; [22]
  solubility: 3300 to 5000 µg/mL
[3]; [23]
  solubility: 1200 to 1400 µg/mL
[3]; [24]
  solubility: < 1000 µg/mL
[3]; [25]
  solubility: > 100000 µg/mL
[3]; toluene, read-out: Solubility
  solubility: 50000 to 100000 µg/mL
[3]; water
  water solubility of Compound I compared to that of Compound II in an acid form: tens of thousands of times or more
[3]; water, read-out: Solubility
  solubility: ≥ 100000 µg/mL

## CCCCCCCCCCCCCCCC(=O)N1CCC[C@H]1C(=O)N1CCC[C@H]1C(=O)NCC(=O)N[C@@H](Cc1ccc(O)cc1)C(=O)O [Micronized Compound II] (Palmitoyl-PPGY-OH)
[4]; FaSSIF, 25° C., LOQ = 2 μg/mL
  solubility: 50 µg/mL (≈ 74.5 µM)
[4]; [26]
  solubility: <LOQ
[4]; Water, 25° C., LOQ = 2 μg/mL
  solubility: <LOQ

## CCCCCCCCCCCCCCCC(=O)N1CCC[C@H]1C(=O)N1CCC[C@H]1C(=O)NCC(=O)N[C@@H](Cc1ccc(O)cc1)C(=O)O [Arginine Salt] (Palmitoyl-PPGY-OH)
[5]
  solubility: <10000 µg/mL

## CCCCCCCCCCCCCCCC(=O)N1CCC[C@H]1C(=O)N1CCC[C@H]1C(=O)NCC(=O)N[C@@H](Cc1ccc(O)cc1)C(=O)O [Compound II, Palmitoyl-L-prolyl-L-prolyl-glycyl-L-tyrosine] (Palmitoyl-PPGY-OH)
[4]; 1% Poloxamer 188 added, SGF (pH = 1.2), LOQ = 2 μg/mL
  solubility: <LOQ
[4]; 1% Poloxamer 188 added, Water, LOQ = 2 μg/mL
  solubility: <LOQ
[4]; 5% Poloxamer 188 added, SGF (pH = 1.2), LOQ = 2 μg/mL
  solubility: <LOQ
[4]; 5% Poloxamer 188 added, Water, LOQ = 2 μg/mL
  solubility: <LOQ
[4]; FaSSIF with 1% Poloxamer 188, 1% Poloxamer 188 added, FaSSIF, LOQ = 2 μg/mL, read-out: Solubility
  solubility: 10 µg/mL (≈ 14.9 µM)
[4]; FaSSIF with 1% SLS, 1% SLS added, FaSSIF, LOQ = 2 μg/mL, read-out: Solubility
  solubility: 1990 µg/mL (≈ 2970 µM)
[4]; FaSSIF with 5% Poloxamer 188, 5% Poloxamer 188 added, FaSSIF, LOQ = 2 μg/mL, read-out: Solubility
  solubility: 10 µg/mL (≈ 14.9 µM)
[4]; FaSSIF with 5% SLS, 5% SLS added, FaSSIF, LOQ = 2 μg/mL, read-out: Solubility
  solubility: 5090 µg/mL (≈ 7590 µM)
[4]; FaSSIF, 25° C., LOQ = 2 μg/mL
  solubility: 10 µg/mL (≈ 14.9 µM)
[4]; [26]
  solubility: <LOQ
[4]; SGF with 1% SLS, pH 1.2, 1% SLS added, SGF (pH = 1.2), LOQ = 2 μg/mL, read-out: Solubility
  solubility: 90 µg/mL (≈ 134 µM)
[4]; SGF with 5% SLS, pH 1.2, 5% SLS added, SGF (pH = 1.2), LOQ = 2 μg/mL, read-out: Solubility
  solubility: 380 µg/mL (≈ 566 µM)
[4]; Water, 25° C., LOQ = 2 μg/mL
  solubility: <LOQ
[4]; water with 1% SLS, 1% SLS added, Water, LOQ = 2 μg/mL, read-out: Solubility
  solubility: 470 µg/mL (≈ 701 µM)
[4]; water with 5% SLS, 5% SLS added, Water, LOQ = 2 μg/mL, read-out: Solubility
  solubility: 1920 µg/mL (≈ 2860 µM)
[4]; water, lower than the limit of quantification (LOQ), read-out: water solubility
  solubility: < 2 µg/mL
[3]; [6]
  solubility: < 1000 µg/mL
[3]; [7]
  solubility: < 1000 µg/mL
[3]; [8]
  solubility: < 1000 µg/mL
[3]; [9]
  solubility: < 1000 µg/mL
[3]; DMF, read-out: Solubility
  solubility: 1000 to 5000 µg/mL
[3]; DMSO, read-out: Solubility
  solubility: 10000 to 25000 µg/mL
[3]; [10]
  solubility: 1000 to 5000 µg/mL
[3]; [11]
  solubility: 1000 to 5000 µg/mL
[3]; Water
  solubility: <1000 µg/mL
[3]; [12]
  solubility: < 1000 µg/mL
[3]; acetone, read-out: Solubility
  solubility: < 1000 µg/mL
[3]; [13]
  solubility: < 1000 µg/mL
[3]; [14]
  solubility: < 1000 µg/mL
[3]; [15]
  solubility: < 1000 µg/mL
[3]; [16]
  solubility: < 1000 µg/mL
[3]; ethanol, read-out: Solubility
  solubility: < 1000 µg/mL
[3]; [17]
  solubility: < 1000 µg/mL
[3]; heptane, read-out: Solubility
  solubility: < 1000 µg/mL
[3]; [18]
  solubility: < 1000 µg/mL
[3]; [19]
  solubility: < 1000 µg/mL
[3]; [20]
  solubility: < 1000 µg/mL
[3]; [21]
  solubility: < 1000 µg/mL
[3]; methanol, read-out: Solubility
  solubility: 1000 to 5000 µg/mL
[3]; [22]
  solubility: < 1000 µg/mL
[3]; [23]
  solubility: < 1000 µg/mL
[3]; [24]
  solubility: < 1000 µg/mL
[3]; [25]
  solubility: < 1000 µg/mL
[3]; toluene, read-out: Solubility
  solubility: < 1000 µg/mL
[3]; water, read-out: Solubility
  solubility: < 1000 µg/mL
interleukin-6
  inhibiting the expression of interleukin-6: excellent effect
NF-κB
  inhibiting the activity of NF-κB: excellent effect

## CCCCCCCCCCCCCCCC(=O)N1CCC[C@H]1C(=O)N1CCC[C@H]1C(=O)NCC(=O)N[C@@H](Cc1ccc(O)cc1)C(=O)O [Meglumine Salt] (Palmitoyl-PPGY-OH)
[5]; read-out: Solubility
  solubility: < 10000 µg/mL
